# Values quoted from earlier work, collected in patent US8338381B2, “Composition and method for the treatment of eye disease” (ADER Enterprise, Inc., priority 2003, dated 2012).
# Columns and labels:
# [1] = administered directly to the eye; Babizhayev 1996
# [2] = tested on: eye cataracts; conditions: administered directly to the eye; Babizhayev 1996
smiles,measurement,setting,value
"NCCC(=O)N[C@@H](Cc1cnc[nH]1)C(=O)O [L-carnosine, β-alanyl-L-histidine]",accumulation in the aqueous humor of the eye,[1],does not lead to accumulation in the aqueous humor of the eye
same,effect on eye cataracts beyond placebo control,[2],does not lead to accumulation in the aqueous humor of the eye or have any significant effect on eye cataracts beyond that of a placebo control
